From publication PMC8333425, “Discovery of a dual Ras and ARF6 inhibitor from a GPCR endocytosis screen” (Nature Communications, 2021)

Columns and labels:
Test in all cases: KINOMEscan kinase binding assay
[1] = biological target: T1, 384 kinases from the human genome (Homo sapiens, UniProt O14733); conditions: kinase MKK7 (Entrez MAP2K7)
T1 construct: purchased Eurofin/DiscoverX
Outline: (§1)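 Competition binding (KINOMEscan) across 384 human kinases with compound at 10 µM. Ligand binding was expressed relative to DMSO (100%) as the average of duplicates from one experiment. S(10) selectivity score was derived.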

[2] = biological target: T2, 384 kinases from the human genome (Homo sapiens, UniProt P00519); conditions: kinase ABL1-phosphorylated (Entrez ABL1)
T2 construct: purchased Eurofin/DiscoverX
Outline: as §1

[3] = biological target: T3, 384 kinases from the human genome (Homo sapiens, UniProt P09619)
T3 construct: purchased Eurofin/DiscoverX
T3 sequence (P09619 33-1106): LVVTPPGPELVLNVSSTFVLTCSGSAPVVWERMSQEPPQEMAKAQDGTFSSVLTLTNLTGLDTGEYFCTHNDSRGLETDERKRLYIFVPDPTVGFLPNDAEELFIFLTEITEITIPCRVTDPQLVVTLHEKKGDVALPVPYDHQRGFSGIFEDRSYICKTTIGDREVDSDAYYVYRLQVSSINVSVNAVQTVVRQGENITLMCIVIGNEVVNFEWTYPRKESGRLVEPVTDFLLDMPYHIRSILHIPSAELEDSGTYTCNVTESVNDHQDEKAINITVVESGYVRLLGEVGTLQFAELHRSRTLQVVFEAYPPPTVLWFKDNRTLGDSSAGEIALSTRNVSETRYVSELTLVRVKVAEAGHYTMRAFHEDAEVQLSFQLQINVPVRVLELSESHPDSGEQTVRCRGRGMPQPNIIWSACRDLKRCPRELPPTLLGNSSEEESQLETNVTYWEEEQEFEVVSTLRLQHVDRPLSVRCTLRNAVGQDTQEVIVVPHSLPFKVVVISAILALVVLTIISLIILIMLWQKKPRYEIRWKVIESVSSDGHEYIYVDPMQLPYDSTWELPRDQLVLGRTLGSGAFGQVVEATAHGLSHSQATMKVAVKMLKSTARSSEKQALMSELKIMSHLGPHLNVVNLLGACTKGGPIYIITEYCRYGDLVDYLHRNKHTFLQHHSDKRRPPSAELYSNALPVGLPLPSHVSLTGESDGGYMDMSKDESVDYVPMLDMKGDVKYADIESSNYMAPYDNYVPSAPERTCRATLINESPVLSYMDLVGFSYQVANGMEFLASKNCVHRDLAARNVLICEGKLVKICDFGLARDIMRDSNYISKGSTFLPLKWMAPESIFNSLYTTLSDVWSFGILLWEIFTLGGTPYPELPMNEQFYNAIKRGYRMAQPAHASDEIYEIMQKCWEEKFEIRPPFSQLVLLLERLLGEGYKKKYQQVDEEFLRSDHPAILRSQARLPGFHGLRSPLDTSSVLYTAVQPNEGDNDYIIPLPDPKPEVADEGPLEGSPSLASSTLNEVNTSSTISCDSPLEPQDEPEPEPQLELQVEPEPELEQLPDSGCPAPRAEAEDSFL
Outline: as §1

[4] = biological target: T4, 384 kinases from the human genome (Homo sapiens, UniProt P27448); conditions: kinase MARK3 (Entrez MARK3)
T4 construct: purchased Eurofin/DiscoverX
Outline: as §1

[5] = biological target: T5, 384 kinases from the human genome (Homo sapiens, UniProt P36888)
T5 construct: purchased Eurofin/DiscoverX
T5 sequence (P36888 27-993): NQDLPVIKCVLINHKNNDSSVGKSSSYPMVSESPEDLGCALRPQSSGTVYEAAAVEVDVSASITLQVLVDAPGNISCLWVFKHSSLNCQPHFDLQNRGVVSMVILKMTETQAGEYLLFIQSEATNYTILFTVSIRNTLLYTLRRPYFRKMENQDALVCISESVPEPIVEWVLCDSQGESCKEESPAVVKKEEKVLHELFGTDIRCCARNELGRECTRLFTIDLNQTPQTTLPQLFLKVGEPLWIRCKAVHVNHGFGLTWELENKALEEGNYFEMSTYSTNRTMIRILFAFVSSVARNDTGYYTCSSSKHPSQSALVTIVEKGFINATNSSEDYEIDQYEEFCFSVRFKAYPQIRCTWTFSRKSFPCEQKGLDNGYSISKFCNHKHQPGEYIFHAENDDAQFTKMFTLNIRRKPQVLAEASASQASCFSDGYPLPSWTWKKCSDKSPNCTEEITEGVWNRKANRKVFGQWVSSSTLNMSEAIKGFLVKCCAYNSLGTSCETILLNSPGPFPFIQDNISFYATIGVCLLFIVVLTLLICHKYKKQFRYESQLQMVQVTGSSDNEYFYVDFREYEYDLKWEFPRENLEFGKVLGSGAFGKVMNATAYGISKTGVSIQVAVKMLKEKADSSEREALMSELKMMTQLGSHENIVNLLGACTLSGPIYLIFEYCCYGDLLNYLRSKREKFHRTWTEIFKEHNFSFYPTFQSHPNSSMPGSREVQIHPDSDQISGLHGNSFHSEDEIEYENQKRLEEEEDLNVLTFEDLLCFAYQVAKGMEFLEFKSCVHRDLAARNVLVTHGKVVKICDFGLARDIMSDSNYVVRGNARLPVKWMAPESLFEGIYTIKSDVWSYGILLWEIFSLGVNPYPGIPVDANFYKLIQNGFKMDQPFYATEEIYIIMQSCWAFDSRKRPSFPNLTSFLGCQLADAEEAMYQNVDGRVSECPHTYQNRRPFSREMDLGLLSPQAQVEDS
Outline: as §1

[6] = biological target: T6, 384 kinases from the human genome (Homo sapiens, UniProt P36896); conditions: kinase ACVR1B (Entrez ACVR1B)
T6 construct: purchased Eurofin/DiscoverX
T6 sequence (P36896 24-505): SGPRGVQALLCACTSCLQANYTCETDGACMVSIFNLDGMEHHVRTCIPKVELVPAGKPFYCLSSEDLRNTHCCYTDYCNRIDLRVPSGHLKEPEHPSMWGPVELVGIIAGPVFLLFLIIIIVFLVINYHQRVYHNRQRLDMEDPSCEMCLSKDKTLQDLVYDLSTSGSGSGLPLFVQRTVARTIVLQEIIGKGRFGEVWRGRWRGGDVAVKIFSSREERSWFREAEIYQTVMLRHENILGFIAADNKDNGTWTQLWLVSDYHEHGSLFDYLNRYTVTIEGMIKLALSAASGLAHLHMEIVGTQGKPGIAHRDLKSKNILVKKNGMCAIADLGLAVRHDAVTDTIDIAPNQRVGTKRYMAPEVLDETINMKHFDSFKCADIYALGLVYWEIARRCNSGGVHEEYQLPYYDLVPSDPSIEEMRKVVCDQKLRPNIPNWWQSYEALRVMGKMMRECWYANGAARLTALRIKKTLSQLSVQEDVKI
Outline: as §1

[7] = biological target: T7, 384 kinases from the human genome (Homo sapiens, UniProt P42679); conditions: kinase CTK (Entrez MATK)
T7 construct: purchased Eurofin/DiscoverX
Outline: as §1

[8] = biological target: T8, 384 kinases from the human genome (Homo sapiens, UniProt P49761); conditions: kinase CLK3 (Entrez CLK3)
T8 construct: purchased Eurofin/DiscoverX
Outline: as §1

[9] = biological target: T9, 384 kinases from the human genome (Homo sapiens, UniProt Q13153); conditions: kinase PAK1 (Entrez PAK1)
T9 construct: purchased Eurofin/DiscoverX
T9 sequence (Q13153 whole entry): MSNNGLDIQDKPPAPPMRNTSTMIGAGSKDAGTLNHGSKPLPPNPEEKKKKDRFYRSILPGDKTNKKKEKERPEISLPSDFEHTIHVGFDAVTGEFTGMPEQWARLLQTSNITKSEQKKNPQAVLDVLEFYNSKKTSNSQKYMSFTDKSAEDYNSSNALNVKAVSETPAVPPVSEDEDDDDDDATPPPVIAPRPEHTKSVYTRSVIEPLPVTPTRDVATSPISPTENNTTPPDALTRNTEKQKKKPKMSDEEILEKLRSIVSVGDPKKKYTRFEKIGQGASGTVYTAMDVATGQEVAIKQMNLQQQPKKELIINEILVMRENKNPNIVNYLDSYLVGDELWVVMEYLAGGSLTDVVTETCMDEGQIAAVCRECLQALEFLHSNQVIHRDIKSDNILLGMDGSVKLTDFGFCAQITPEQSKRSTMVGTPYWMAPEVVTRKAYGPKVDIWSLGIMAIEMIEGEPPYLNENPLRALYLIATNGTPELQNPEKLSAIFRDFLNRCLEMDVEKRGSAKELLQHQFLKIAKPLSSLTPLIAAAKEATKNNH
Outline: as §1

[10] = biological target: T10, 384 kinases from the human genome (Homo sapiens, UniProt Q8TDX7); conditions: kinase NEK7 (Entrez NEK7)
T10 construct: purchased Eurofin/DiscoverX
T10 sequence (Q8TDX7 whole entry): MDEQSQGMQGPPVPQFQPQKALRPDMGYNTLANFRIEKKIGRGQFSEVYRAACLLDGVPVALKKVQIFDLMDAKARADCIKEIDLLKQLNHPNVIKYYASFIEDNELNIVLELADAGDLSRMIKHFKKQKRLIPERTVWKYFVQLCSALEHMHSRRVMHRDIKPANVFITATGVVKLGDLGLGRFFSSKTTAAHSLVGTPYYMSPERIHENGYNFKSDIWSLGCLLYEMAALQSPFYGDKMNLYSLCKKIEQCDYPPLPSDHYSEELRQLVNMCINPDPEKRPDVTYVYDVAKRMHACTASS
Outline: as §1

[11] = biological target: T11, 384 kinases from the human genome (Homo sapiens, UniProt Q9BVS4); conditions: kinase RIOK2 (Entrez RIOK2)
T11 construct: purchased Eurofin/DiscoverX
Outline: as §1

[12] = biological target: T12, 384 kinases from the human genome (Homo sapiens, UniProt Q9H093); conditions: kinase SNARK (Entrez NUAK2)
T12 construct: purchased Eurofin/DiscoverX
T12 sequence (Q9H093 whole entry): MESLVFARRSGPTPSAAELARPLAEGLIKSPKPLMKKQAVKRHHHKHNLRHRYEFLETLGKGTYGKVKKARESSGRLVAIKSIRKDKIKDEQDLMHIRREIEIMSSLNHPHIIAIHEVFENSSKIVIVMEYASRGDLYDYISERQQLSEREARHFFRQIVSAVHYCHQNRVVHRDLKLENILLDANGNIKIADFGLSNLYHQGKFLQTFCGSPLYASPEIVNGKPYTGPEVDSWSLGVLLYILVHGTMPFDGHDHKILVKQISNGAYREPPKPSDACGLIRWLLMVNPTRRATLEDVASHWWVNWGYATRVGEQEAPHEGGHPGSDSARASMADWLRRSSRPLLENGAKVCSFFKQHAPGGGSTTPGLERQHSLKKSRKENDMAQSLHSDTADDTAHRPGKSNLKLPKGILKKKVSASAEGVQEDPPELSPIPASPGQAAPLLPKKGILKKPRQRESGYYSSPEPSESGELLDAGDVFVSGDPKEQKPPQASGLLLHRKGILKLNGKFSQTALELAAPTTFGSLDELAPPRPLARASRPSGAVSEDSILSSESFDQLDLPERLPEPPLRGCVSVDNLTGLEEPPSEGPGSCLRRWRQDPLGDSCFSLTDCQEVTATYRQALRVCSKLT
Outline: as §1

[13] = biological target: T13, 384 kinases from the human genome (Homo sapiens, UniProt Q9H0K1); conditions: kinase SIK2 (Entrez SIK2)
T13 construct: purchased Eurofin/DiscoverX
T13 sequence (Q9H0K1 whole entry): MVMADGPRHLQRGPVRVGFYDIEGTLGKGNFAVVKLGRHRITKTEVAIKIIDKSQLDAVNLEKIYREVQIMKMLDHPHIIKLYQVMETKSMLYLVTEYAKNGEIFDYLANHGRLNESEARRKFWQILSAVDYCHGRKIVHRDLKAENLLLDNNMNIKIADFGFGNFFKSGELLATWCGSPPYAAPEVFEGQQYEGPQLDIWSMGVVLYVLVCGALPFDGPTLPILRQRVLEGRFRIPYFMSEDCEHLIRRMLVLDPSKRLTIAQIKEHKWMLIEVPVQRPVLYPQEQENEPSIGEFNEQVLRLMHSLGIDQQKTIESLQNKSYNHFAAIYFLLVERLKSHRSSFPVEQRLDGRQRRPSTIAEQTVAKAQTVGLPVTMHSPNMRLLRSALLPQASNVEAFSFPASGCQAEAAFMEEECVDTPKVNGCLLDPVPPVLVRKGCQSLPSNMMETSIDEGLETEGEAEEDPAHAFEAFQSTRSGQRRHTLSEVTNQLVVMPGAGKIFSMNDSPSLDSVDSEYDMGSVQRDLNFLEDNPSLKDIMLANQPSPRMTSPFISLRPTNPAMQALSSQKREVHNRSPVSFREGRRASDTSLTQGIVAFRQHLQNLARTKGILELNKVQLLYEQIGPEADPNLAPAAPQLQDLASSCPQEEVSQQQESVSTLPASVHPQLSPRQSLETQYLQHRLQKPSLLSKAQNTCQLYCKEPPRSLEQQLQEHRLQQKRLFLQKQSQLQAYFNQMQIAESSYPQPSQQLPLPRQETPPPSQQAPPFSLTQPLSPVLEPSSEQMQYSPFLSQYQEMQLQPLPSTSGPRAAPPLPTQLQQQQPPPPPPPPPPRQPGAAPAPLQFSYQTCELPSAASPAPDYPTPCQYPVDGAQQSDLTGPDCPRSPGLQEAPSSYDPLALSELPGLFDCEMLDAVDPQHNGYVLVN
Outline: as §1

[14] = biological target: T14, 384 kinases from the human genome (Homo sapiens, UniProt Q9H2X6); conditions: kinase HIPK2 (Entrez HIPK2)
T14 construct: purchased Eurofin/DiscoverX
Outline: as §1

[15] = biological target: T15, 384 kinases from the human genome (Homo sapiens, UniProt Q9NRH2); conditions: kinase SNRK (Entrez SNRK)
T15 construct: purchased Eurofin/DiscoverX
T15 sequence (Q9NRH2 whole entry): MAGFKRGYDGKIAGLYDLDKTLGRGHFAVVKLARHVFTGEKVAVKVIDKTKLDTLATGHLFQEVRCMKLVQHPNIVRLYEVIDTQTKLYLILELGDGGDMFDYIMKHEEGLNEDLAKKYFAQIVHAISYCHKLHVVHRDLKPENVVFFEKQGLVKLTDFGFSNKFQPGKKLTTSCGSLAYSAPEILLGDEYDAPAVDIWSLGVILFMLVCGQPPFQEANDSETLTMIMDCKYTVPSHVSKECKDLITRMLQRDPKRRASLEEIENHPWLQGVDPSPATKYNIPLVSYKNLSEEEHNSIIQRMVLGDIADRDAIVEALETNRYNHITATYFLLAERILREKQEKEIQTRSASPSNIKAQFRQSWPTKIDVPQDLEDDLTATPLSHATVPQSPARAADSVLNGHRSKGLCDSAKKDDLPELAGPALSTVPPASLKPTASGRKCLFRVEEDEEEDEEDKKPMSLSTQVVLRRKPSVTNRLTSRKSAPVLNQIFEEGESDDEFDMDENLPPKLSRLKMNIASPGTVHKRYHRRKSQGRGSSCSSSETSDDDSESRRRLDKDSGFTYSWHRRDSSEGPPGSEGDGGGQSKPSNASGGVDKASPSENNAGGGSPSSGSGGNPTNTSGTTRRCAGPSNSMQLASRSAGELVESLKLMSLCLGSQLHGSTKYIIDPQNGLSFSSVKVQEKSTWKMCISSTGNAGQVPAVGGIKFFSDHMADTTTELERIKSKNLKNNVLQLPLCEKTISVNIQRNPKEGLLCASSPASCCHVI
Outline: as §1

[16] = biological target: T16, 384 kinases from the human genome (Homo sapiens, UniProt Q9UIK4); conditions: kinase DAPK2 (Entrez DAPK2)
T16 construct: purchased Eurofin/DiscoverX
Outline: as §1

[17] = 10 µM of 21, compared to DMSO (100%)

CC(C)C(=O)N1CCN(c2ccc(NC(=O)c3cc4ccccc4o3)cc2Cl)CC1 [Compound 21]
Percent Control [1]: 93% | Percent Control [2]: 89% | PDGFRB binding to its ligand affected [3, 17]: more than 90% | Percent Control ([3]; kinase PDGFRB (Entrez PDGFRB)): 2.6% | Percent Control [4]: 100% | FLT3 binding to its ligand affected [5, 17]: more than 90% | Percent Control ([5]; kinase FLT3 (Entrez FLT3)): 6.6% | Percent Control ([5]; kinase FLT3-autoinhibited (Entrez FLT3)): 71% | Percent Control [6]: 85% | Percent Control [7]: 95% | Percent Control [8]: 100% | Percent Control [9]: 92% | Percent Control [10]: 100% | Percent Control [11]: 100% | Percent Control [12]: 96% | Percent Control [13]: 77% | Percent Control [14]: 100% | Percent Control [15]: 78% | Percent Control [16]: 100%
